Measured values: patent publication US10433548B2, “Biocidal compositions comprising iron chelators” (Arch Chemicals, Inc., priority 2012, dated 2019)
Values after ≈ are worked out from the molar mass of the structure shown. Read-outs that look alike come from different tables or passages of the source.

Assays:
Assay in all cases: Minimum Inhibitory Concentration (MIC) test, 96-well microtiter plate
Type in all cases: cell-based
C. pyrenoidosa = system: C. pyrenoidosa; parameters: unit not given here
R. subcapitata = system: R. subcapitata; parameters: unit not given here
P. faveolarum = system: P. faveolarum; parameters: unit not given here
Method: (§1) Activities of antimicrobial compositions of the present invention were tested against a range of typical skin microorganisms in a Minimum Inhibitory Concentration (MIC) test. MICs for the organisms were determined in a standard 96-well microtiter plate assay in Brain Heart Infusion Broth (BHI) for P. acnes; Tryptic Soy Broth (TSB) for the remaining bacteria; Ushijima Broth for M. furfur; Sabouraud Dextrose Broth (SDB) for other fungi. Samples were tested in duplicate on separate plates. For bacteria and fungi plates, samples were serially diluted into double strength media on the microtiter plates. The bacterial or fungal inocula, suspended in sterile deionized water, were then added to the wells in 1:1 ratio to the medium. The final concentration of bacteria in the wells was 5×10^5 CFUs/mL, the final concentration of fungi was 5×10^4 cells or spores/mL. Plates were incubated: anaerobically at 35° C. for 7 days for P. acnes; aerobically at 35° C. for 2 days for the remaining bacteria and aerobically at 35° C. for 7 days for M. furfur; aerobically at 28° C. for 7 days for T. mentagrophytes.

C. albicans = system: C. albicans; parameters: unit not given here
Method: as §1

T. mentagrophytes = system: T. mentagrophytes; parameters: unit not given here
Method: as §1

B. subtilis = system: B. subtilis; parameters: unit not given here
Method: as §1

P. aeruginosa = system: P. aeruginosa; parameters: unit not given here
Method: as §1

M. furfur = system: M. furfur; parameters: unit not given here
Method: as §1

S. epidermidis = system: S. epidermidis; parameters: unit not given here
Method: as §1

A. brasiliensis = system: A. brasiliensis; parameters: unit not given here
Method: as §1

E. coli = settings: Active ZPT alone or plus chelator or chelator + Zn(II); Molar Ratio HBED 10×, 8-HQ 5×, 8-HQ + Zn(II) 1×, 2-HPNO 10×
Method: as §1

A. pullulans = system: A. pullulans; parameters: unit not given here
Method: as §1

P. acnes = settings: for MIC: Cutibacterium acnes
Method: as §1

S. aureus = system: S. aureus; parameters: unit not given here
Method: as §1

E. hirae = system: E. hirae; parameters: unit not given here
Method: as §1

[1] = concentration of ZPT, ZPT alone or with potentiator, Molar Eq (Pot:ZPT) 10:1, 8-HQ-Zn 1:1
[2] = Active ZPT alone or plus chelator or chelator + Zn(II), Molar Ratio HBED 10×, 8-HQ 5×, 8-HQ + Zn(II) 1×, 2-HPNO 10×
[3] = concentration of BBIT, BBIT alone or with potentiator, Molar Eq (Pot:BBIT) 10:1
[4] = concentration of BIT, BIT alone or with potentiator, Molar Eq (Pot:BIT) 10:1
[5] = concentration of Propiconazole, alone or with potentiator, Molar Eq (Pot:PROP) 10:1
[6] = concentration of IPBC, IPBC alone or with potentiator, Molar Eq (Pot:IPBC) 10:1

Molecule | MIC C. pyrenoidsa (C. pyrenoidosa; [1]) | MIC R. subcapitata (R. subcapitata; [1]) | MIC P. faveolarum (P. faveolarum; [1]) | MIC C. albicans (C. albicans; [1]) | MIC T. mentagrophytes (T. mentagrophytes; [1]) | MIC B. subtilis (B. subtilis; [1]) | MIC P. aeruginosa (P. aeruginosa; [1]) | MIC M. furfur (M. furfur; [1]) | MIC S. epidermidis (S. epidermidis; [1]) | MIC A. brasiliensis (A. brasiliensis; [1]) | MIC C. pyrenoidsa (C. pyrenoidosa; [3]) | MIC C. pyrenoidsa (C. pyrenoidosa; [4]) | MIC R. subcapitata (R. subcapitata; [3]) | MIC R. subcapitata (R. subcapitata; [4]) | MIC P. faveolarum (P. faveolarum; [3]) | MIC P. faveolarum (P. faveolarum; [4]) | MIC A. pullulans (A. pullulans; [4]) | MIC B. subtilis (B. subtilis; [4]) | MIC P. aeruginosa (P. aeruginosa; [4]) | MIC A. brasiliensis (A. brasiliensis; [4]) | further results
O=C(O)CN(CCN(CC(=O)O)Cc1ccccc1O)Cc1ccccc1O.[Zn] [HBED-Zn] | 0.98 | 0.49 | 0.24 | 3.91 | 1.46 | 1.95 | 15.63 | 0.98 | 3.91 | 7.81 |  |  |  |  |  |  |  |  |  |  | MIC T. mentagrophytes (T. mentagrophytes; [2]): 1.46; MIC P. aeruginosa (P. aeruginosa; [2]): 15.63; MIC M. furfur (M. furfur; [2]): 0.98; MIC S. epidermidis (S. epidermidis; [2]): 3.91; MIC E. Coli (E. coli): 3.91
O=C(O)CN(CCN(CC(=O)O)CC(=O)O)CCN(CC(=O)O)CC(=O)O [DTPA, diethylenetriaminepentaacetic acid] |  |  |  |  |  |  |  |  |  |  | 1.25 | 0.51 | 0.94 | 0.51 | 0.16 | <0.06 | 2.03 | 2.03 | 8.13 | 16.25 | MIC A. pullulans (A. pullulans; [3]): 0.63; MIC B. subtilis (B. subtilis; [3]): 2.50; MIC P. aeruginosa (P. aeruginosa; [3]): 20.00; MIC A. brasiliensis (A. brasiliensis; [3]): 1.25; MIC values against P. acnes, Benzoyl Peroxide (P. acnes; Benzoyl Peroxide without chelator or with chelator, Molar Eq. HBED 10×, 8-HQ 5×, DTPA 10×, Desferrioxamine 1×): 6.25 ppm; MIC values against P. acnes, Salicylic Acid (P. acnes; Salicylic Acid without chelator or with chelator, Molar Eq. HBED 10×, 8-HQ 5×, DTPA 10×, Desferrioxamine 1×): 3.13 ppm
glucoheptanoic acid zinc salt [Gluco-heptanoate-Zn] |  |  |  |  |  |  |  |  |  |  | 1.25 |  | 1.88 |  | 0.16 |  |  |  |  |  | MIC C. pyrenoidsa (C. pyrenoidosa; [5]): 15.47; MIC R. subcapitata (R. subcapitata; [5]): 0.97; MIC P. faveolarum (P. faveolarum; [5]): 1.93; MIC C. albicans (C. albicans; [5]): 82.50; MIC S. aureus (S. aureus; [5]): 41.25; MIC A. pullulans (A. pullulans; [3]): 5.00; MIC E. hirae (E. hirae; [5]): 20.63; MIC B. subtilis (B. subtilis; [3]): 1.25; MIC B. subtilis (B. subtilis; [5]): 20.63; MIC P. aeruginosa (P. aeruginosa; [3]): 80.00; MIC P. aeruginosa (P. aeruginosa; [5]): 165.00; MIC A. brasiliensis (A. brasiliensis; [3]): 2.50
O=C(OOC(=O)c1ccccc1)c1ccccc1 [Benzoyl Peroxide, benzoyl peroxide] |  |  |  |  |  |  |  |  |  |  |  |  |  |  |  |  |  |  |  |  | MIC (P. acnes; Benzoyl Peroxide without chelator or with chelator, Molar Eq. HBED 10×, 8-HQ 5×, DTPA 10×, Desferrioxamine 1×, read-out: MIC values against P. acnes, Benzoyl Peroxide): 200 µg/mL (≈ 826 µM)
zinc dihydroxyacetate [DHA-Zn] | 0.98 | 0.98 | 0.05 | 3.91 | 0.49 | 0.98 | 31.25 | 1.95 | 3.91 | 7.81 |  | 2.03 |  | 2.03 |  | 0.25 | 2.03 | 1.52 | 32.50 | 6.09 | MIC C. pyrenoidsa (C. pyrenoidosa; [5]): 10.31; MIC R. subcapitata (R. subcapitata; [5]): 1.29; MIC P. faveolarum (P. faveolarum; [5]): 1.93; MIC C. albicans (C. albicans; [5]): 0.64; MIC S. aureus (S. aureus; [5]): 41.25; MIC E. hirae (E. hirae; [5]): 20.63; MIC B. subtilis (B. subtilis; [5]): 30.94; MIC P. aeruginosa (P. aeruginosa; [5]): 165.00
CC(=O)N(O)CCCCCNC(=O)CCC(=O)N(O)CCCCCNC(=O)CCC(=O)N(O)CCCCCN [Desferrioxamine, desferrioxamine] |  |  |  |  |  |  |  |  |  |  |  |  |  |  |  |  |  |  |  |  | MIC (P. acnes; read-out: MIC values against P. acnes, Benzoyl Peroxide): 25 µg/mL (≈ 44.6 µM); MIC (P. acnes; read-out: MIC values against P. acnes, Salicylic Acid): 25 µg/mL (≈ 44.6 µM)
O=C(CC(=O)C(F)(F)F)c1cccs1.[Zn] [Then-Zn, thenoyl trifluoro acetone zinc salt] |  |  |  |  |  |  |  |  |  |  |  | 2.03 |  | 1.02 |  | 0.13 | 4.06 | 1.52 | 32.50 | 32.50 | MIC C. pyrenoidsa (C. pyrenoidosa; [6]): 0.38; MIC R. subcapitata (R. subcapitata; [6]): 1.02; MIC P. faveolarum (P. faveolarum; [6]): 0.51; MIC C. albicans (C. albicans; [6]): 2.03; MIC S. aureus (S. aureus; [6]): 13.25; MIC E. hirae (E. hirae; [6]): 8.13; MIC B. subtilis (B. subtilis; [6]): 4.06; MIC P. aeruginosa (P. aeruginosa; [6]): 65.0
CCCCn1sc2ccccc2c1=O [BBIT, butylbenzisothiazolinone] |  |  |  |  |  |  |  |  |  |  | 1.25-2.5 |  | 1.25-15 |  | 1.25-5 |  |  |  |  |  | MIC A. pullulans (A. pullulans; [3]): 2.5-5; MIC B. subtilis (B. subtilis; [3]): 1.88-2.5; MIC P. aeruginosa (P. aeruginosa; [3]): 80.00; MIC A. brasiliensis (A. brasiliensis; [3]): 1.25-5
O=c1cccccc1[O-].O=c1cccccc1[O-].[Zn+2] [Tropolone-Zn, zinc(tropolone)2] | 0.98 | 0.49 | 0.05 | 0.73 | 0.18 | 0.24 | 15.63 | 0.73 | 0.18 | 1.95 | 1.25 | 0.76 | 0.94 | 1.02 | 0.23 | 0.19 | 0.24 | 0.13 | 8.13 | 1.02 | MIC C. pyrenoidsa (C. pyrenoidosa; [6]): 0.51; MIC C. pyrenoidsa (C. pyrenoidosa; [5]): 2.58; MIC R. subcapitata (R. subcapitata; [6]): 0.51; MIC R. subcapitata (R. subcapitata; [5]): 1.29; MIC P. faveolarum (P. faveolarum; [6]): 0.38; MIC P. faveolarum (P. faveolarum; [5]): 0.32; MIC C. albicans (C. albicans; [6]): 1.02; MIC C. albicans (C. albicans; [5]): 0.97; MIC S. aureus (S. aureus; [6]): 0.51; MIC S. aureus (S. aureus; [5]): 0.64; MIC A. pullulans (A. pullulans; [3]): 0.31; MIC E. hirae (E. hirae; [6]): 0.25; MIC E. hirae (E. hirae; [5]): 0.32; MIC B. subtilis (B. subtilis; [3]): 0.31; MIC B. subtilis (B. subtilis; [6]): 0.51; MIC B. subtilis (B. subtilis; [5]): 0.64; MIC P. aeruginosa (P. aeruginosa; [3]): 20.00; MIC P. aeruginosa (P. aeruginosa; [6]): 32.5; MIC P. aeruginosa (P. aeruginosa; [5]): 41.25; MIC A. brasiliensis (A. brasiliensis; [3]): 0.94
CCCC1COC(Cn2cncn2)(c2ccc(Cl)cc2Cl)O1 (stereo not shown) [Propiconazole, propiconazole] |  |  |  |  |  |  |  |  |  |  |  |  |  |  |  |  |  |  |  |  | MIC C. pyrenoidsa (C. pyrenoidosa; [5]): 20.63-82.5; MIC R. subcapitata (R. subcapitata; [5]): 20.63-41.25; MIC P. faveolarum (P. faveolarum; [5]): 20.63-41.25; MIC C. albicans (C. albicans; [5]): 41.25-100.00; MIC S. aureus (S. aureus; [5]): 82.5-165.00; MIC E. hirae (E. hirae; [5]): 165.00; MIC P. aeruginosa (P. aeruginosa; [5]): 165.00
O=c1[nH]sc2ccccc12 [BIT, benzisothiazolinone] |  |  |  |  |  |  |  |  |  |  |  | 4.06-8 |  | 8.13 |  | 4.06-16 | 4.06-8 | 1.02-4 | 32.50 | 16-32.5 | 
O=C(O)c1ccccc1O [Salicylic Acid, salicylic acid] |  |  |  |  |  |  |  |  |  |  |  |  |  |  |  |  |  |  |  |  | MIC (P. acnes; Salicylic Acid without chelator or with chelator, Molar Eq. HBED 10×, 8-HQ 5×, DTPA 10×, Desferrioxamine 1×, read-out: MIC values against P. acnes, Salicylic Acid): 100 µg/mL (≈ 724 µM)
Oc1cccc2cccnc12.[Zn] [8-HQ-Zn, 8-hydroxyquinoline zinc salt] | 0.73 | 1.95 | 0.24 | 7.81 | 3.91 | 0.98 | 31.25 | 1.95 | 1.95 | 15.63 |  |  |  |  |  |  |  |  |  |  | MIC T. mentagrophytes (T. mentagrophytes; [2]): 3.91; MIC P. aeruginosa (P. aeruginosa; [2]): 31.5; MIC M. furfur (M. furfur; [2]): 1.95; MIC S. epidermidis (S. epidermidis; [2]): 1.95; MIC E. Coli (E. coli): 7.81
